The test system of data set [1] is abdominal adhesions. Briefly: Post-surgical abdominal adhesions in rats, Halofuginone i.p. injection: number and severity of adhesions. Type of data set: in vivo. Further details: key to Adhesion Score: 0=no adhesions; I=a thin, filmy, easily separated adhesion; II=several thin adhesions; III=a thick, broad adhesion; IV=several thick adhesions. How it is done:
(§1) The experiments were performed as follows. First, the abdomen of the rats was shaved and prepared with iodine and alcohol. The abdominal cavity was entered through a mid-line incision. The small intestine was scraped from the duodenum down to from about 9 to about 10 cm from the cecum, until capillary bleeding occurred. To avoid drying, Hartman's solution at about 37° C. was occasionally dripped on the intestine. After replacement of the intestine into the abdominal cavity, the abdomen was closed in two layers with continuous 00 chromic catgut suture. […] Res., Vol 17, p. 254-258, 1985]. After 21 days, the rats were sacrificed and the sutures were reopened to determine the level of adhesion formation and to take biopsies of the tissue.
The experiment was performed as follows. Abdominal adhesions were induced in two groups of rats as described above in Example 1. […] One group of the rats which underwent surgery received an i.p. injection of Halofuginone every day after the operation for 21 days. The rats were dosed according to body weight, with 1 ug of Halofuginone given per 25 g of body weight. […]
Two different tests were performed to assess the effect of Halofuginone on the number and severity of adhesions in rats which underwent surgery. […] At the end of 21 days, the rats were weighed and the number and severity of adhesions were determined according to a double-blind procedure. […]

For data set [2], the system named is abdominal adhesions. Briefly: Post-surgical abdominal adhesions in rats, Halofuginone in the diet: number and severity of adhesions. Further details: key to Adhesion: 0=no adhesions; I=a thin, filmy, easily separated adhesion; II=several thin adhesions; III=a thick, broad adhesion; IV=several thick adhesions. The following applies: for Adhesion: one rat per row. The data set is classed as in vivo. How it is done:
as §1
In the double-blind procedure, adhesions were classified according to the following grading: 0=no adhesions; I=a thin, filmy, easily separated adhesion; II=several thin adhesions; III=a thick, broad adhesion and IV=several thick adhesions. Clearly, 0 is the least severe and IV is the most severe grade.
(§2) In the second experiment, Halofuginone was administered in the diet of two groups of rats at a concentration of 5 mg/kg dry feed for 4 days before surgery, as a pretreatment. Two other groups of rats were fed a normal diet and served as control groups. One of the groups of rats fed Halofuginone and one control group the underwent surgery as described above. Halofuginone treatment was continued for 21 days following surgery, after which the rats were sacrificed and the number and severity of adhesions were determined, and body weight was measured.

In data set [3] the test system is collagen type I. Briefly: Collagen α1(I) gene expression and collagen type I content in surgically insulted abdominal tissue (in situ hybridization, Sirius red). The data set is classed as in vivo. Conditions: rats with surgery, Halofuginone i.p. daily for 21 days. How it is done: as §1
The tissue was sectioned so that histological studies could be performed. Briefly, the tissue samples were collected into phosphate-buffered saline (PBS) and fixed overnight in 4% paraformaldehyde in PBS at 4° C. Serial 5 μm sections were prepared after the samples had been dehydrated in graded ethanol solutions, cleared in chloroform and embedded in Paraplast. Differential staining of collagenous and non-collagenous proteins were performed with 0.1% Sirius red and 0.1% fast green as a counter-stain in picric acid. This procedure stains collagen red [Gascon-Barre, M., et al., J. Histochem. Cytochem., Vol 37, p. 377-381, 1989].
For hybridization with the genetic probe, the sections were deparafinized in xylene, rehydrated through a graded series of ethanol solutions, rinsed in distilled water for 5 minutes and then incubated in 2×SSC [What is the recipe?] at 70° C. for 30 minutes. The sections were then rinsed in distilled water and treated with pronase, 0.125 mb/ml in 50 mM Tris-HCl, 5 mM EDTA, pH 7.5 for 10 minutes. […] Alkaline phosphatase activity was detected in the sections as previously described [Knopov, V., et al., Bone, Vol 16 p. […]
After 21 days, tissue samples were taken for histological analysis as described above. Both collagen type I content of the tissue, and the level of collagen a(1)I gene expression were measured.

A further data set relates to alkaline phosphatase. Put plainly: Alkaline phosphatase activity in tissue sections after abdominal surgery. Conditions: rats with surgery injected with Halofuginone, 21 days; FIG. 3C. The data set is classed as in vivo. How it is done: For hybridization with the genetic probe, the sections were deparafinized in xylene, rehydrated through a graded series of ethanol solutions, rinsed in distilled water for 5 minutes and then incubated in 2×SSC [What is the recipe?] at 70° C. for 30 minutes. The sections were then rinsed in distilled water and treated with pronase, 0.125 mb/ml in 50 mM Tris-HCl, 5 mM EDTA, pH 7.5 for 10 minutes. After digestion, the slides were rinsed with distilled water, post-fixed in 10% formalin in PBS and blocked in 0.2% glycine. After blocking, the slides were rinsed in distilled water, rapidly dehydrated through graded ethanol solutions and air-dried for several hours. Before hybridization, the 1600 bp rat collagen α1(I) insert was cut out from the original plasmid, pUC18, and inserted into the pSafyre plasmid. The sections were then hybridized with this probe after digoxigenin-labelling. Alkaline phosphatase activity was detected in the sections as previously described [Knopov, V., et al., Bone, Vol 16 p. 329S-334S, 1995].
After 21 days, tissue samples were taken from all three groups of rats and histological sections were prepared as described in Example 1, and alkaline phosphatase activity was measured as described in Example 1.

The test system of data set [4] is skin wound. Put plainly: Wound healing and collagen content of skin wounds in irradiated and non-irradiated mice. Type of data set: in vivo, C3H mice. Conditions: Halofuginone 1 μg/mouse i.p. every other day, 14 days. How it is done: The experiment was conducted as follows. First C3H, defined-flora, pathogen-free female mice of 12-14 weeks of age were anesthetized with 60 mg/kg sodium phenobarbital. The mice were then shaved. One group of mice was then irradiated as follows. First, a flap of skin about 40 mm long and about 20 mm wide was pulled through a slit in the lead cover of an irradiation jig and secured with tape, so that only the flap of skin was exposed. This exposed skin was then irradiated by using a 175 kVp/20 mA orthovoltage X-ray source, with a 2 mm Cu filter at a dose rate of 1.0 Gy/min. A standard dose of 18 Gy was delivered.
All of the mice were then wounded by making a fill depth incision, about 25 mm long, in the skin along the midline of the lower back. Note that for the irradiated animals, the wound was made within the irradiated area, immediately following irradiation. For all mice, the incision was immediately closed by 3-4 metallic wound closure clips which were removed 2 days later.
After wounding, the mice were injected i.p every other day, either with 1 μg/mouse Halofuginone or with saline as a control. After 14 days, 2 days following the last injection, the mice were sacrificed and skin samples were collected into phosphate-buffered saline (PBS) and fixed in 4% paraformaldehyde in PBS at 4° C. […]

In data set [5] the test system is skin wound. Put plainly: Wound strength (bursting point of skin strips, Instron tensiometer). Conditions: irradiated or non-irradiated animals, one or six injections of Halofuginone; FIG. 5. The data set is classed as in vivo, rats. Here is the method: Wound strength was assessed by preparing rats substantially as described above, except that one group of rats (not irradiated) only received one injection of Halofuginone after wounding. The strength of wounds was measured as follows. First, a square of skin which was approximately 20 mm long and 16 mm wide, and which included the main part of the wound, was excised from sacrificed rats. Next, the skin was cut, perpendicular to the wound, to yield 7 strips of skin, each of which was 2 mm wide. The skin strips were secured between paper reinforcement frames and loaded on an Instron tensiometer for stretching at a constant rate of 25 mm/min. The bursting point was then recorded.

On the set-up of data set [6]: species or system rats. Conditions: rat, in vivo, ip. Here is the method:
The experiment was performed as follows. Abdominal adhesions were induced in two groups of rats as described above in Example 1. […] One group of the rats which underwent surgery received an i.p. injection of Halofuginone every day after the operation for 21 days. The rats were dosed according to body weight, with 1 ug of Halofuginone given per 25 g of body weight. The other group of rats which underwent surgery received saline injections for 21 days.
Two different tests were performed to assess the effect of Halofuginone on the number and severity of adhesions in rats which underwent surgery. […] The experimental method was as follows. For the first test, three groups of rats were prepared as described above in Example 2. At the end of 21 days, the rats were weighed and the number and severity of adhesions were determined according to a double-blind procedure.

Details of data set [7]: species or system rats. The following applies: rat, in vivo. Here is the method: as §2
Data set [8] relates to adhesions between tendon and its sheath. Conditions: chickens, local treatment through a catheter; cited from earlier work.
Data set [9] relates to collagen type I. The following applies: cited from earlier work.
Another data set has as its system peritoneal adhesions. The following applies: rats, cited from earlier work.
For data set [10] the following is noted: ascribed to effects on many collagen types and Fe++ ion-binding enzymes; cited from earlier work.
In the next data set the test system is adhesions. Conditions: infertility surgery, gynecological surgeons; cited from earlier work.

“And” between values parts separate entries of the source, which are not always exact repeats. Identical values can stand only once.

Take `O=C(CC1NCCCC1O)Cn1cnc2cc(Br)c(Cl)cc2c1=O` (centres unmarked) [Halofuginone]: the “Adhesion Score” value with abdominal adhesions [1] (Group 2: rats with surgery, Halofuginone i.p. 1 ug per 25 g body weight daily for 21 days, one rat per row) was 0 (3×) and 0-1 and 2. The “number and severity of adhesions” value in the data set on abdominal adhesions [1] (Halofuginone-treated (i.p.) compared to non-treated rats after surgery) is reported as “sharply reduced”. Further, the Adhesion is 0-1 (3×) and 1 (3×) and 1-2 (2×) and 0 (2×) in the data set with abdominal adhesions [2] (Group 2: rats with surgery, Halofuginone 5 mg/kg dry feed from 4 days before to 21 days after surgery); 0 in the data set with abdominal adhesions [2] (Group 3: rats without surgery, Halofuginone 5 mg/kg dry feed). Also, the “number of rats with an adhesion” value in the data set with abdominal adhesions [2] (Halofuginone in diet, rats with surgery, compared to untreated operated rats) is listed as “smaller number”. For the same molecule, the “damage to the villi” value in the data set on collagen type I [3] is “much less damage”. The “collagen α1(I) gene expression” value in the data set on collagen type I [3] (FIG. 2C) was “low levels”. Further, the “collagen type I content” value in the data set with collagen type I [3] (FIG. 2F) is given as “low level”. In addition, the alkaline phosphatase activity entry in the data set with alkaline phosphatase was “substantially no alkaline phosphatase activity”. The “collagen content of the wound” value in the data set with skin wound [4] (irradiated (18 Gy) mouse, FIG. 4H) is reported as “significantly lowered”. In the data set on skin wound [4] (irradiated and non-irradiated mice), the wound healing result is reported as “healed”. In addition, the wound strength entry in the data set on skin wound [5] is “did not reduce wound strength”. In addition, in [6], the “reduction in weight gain” value was “more pronounced”. Also, the weight gain entry in data set [7] was “substantially similar”. Besides, the “prevention of adhesions between tendon and sheath” value in [8] is on record as “effective”. The “inhibition of synthesis of collagen type I versus other collagens (α2(I), type II, type III, type X)” value with collagen type I [9] is listed as “only inhibits the synthesis of collagen type I”.
For the molecule `Oc1cc(O)c2c(c1)O[C@H](c1ccc(O)c(O)c1)[C@@H](O)C2` [cianidanol], the “number of post-surgical adhesions” value in the data set with peritoneal adhesions is on record as “decrease”. Moreover, in data set [10], the toxicity entry is recorded as “toxic”.
Take dextran: the adhesive prevention entry with adhesions is on record as “little success”.
For the molecule povidone-iodine, the “reduction of the number of peritoneal adhesions after surgery” value in the data set with peritoneal adhesions (effect ascribed to an anti-microbial effect) is given as 35%.

(Values after patent publication USRE37828E1, “Treatment and prevention of adhesions” (Hadasit Medical Research Services & Development Co., Ltd., priority 1997, dated 2002).)
